{"source": "patent US20250230149A1", "about": "“MGLUR5 MODULATING COMPOUNDS, COMPOSITIONS, AND METHODS OF USE” (Allyx Therapeutics, Inc., priority 2022, published 2025)", "key": {"[1]": {"assay": "Approximate solubility (visual) in solvents", "assay_type": "physicochemical", "conditions": "thermodynamic from solid, read-out: Approx. solubility", "protocol": "The polymorph study protocol involved the use of a selection of solvents in which the solubility of Compound 1 was initially evaluated. Four typologies of experiments were then set up: temperature cycling, evaporative, long-term slurries and vapor diffusion. The number of solvents, solvent volumes and amount of material to be used in each experiment was based on solubility values and the kind of experiment.\nApproximate solubility (visual) of Compound 1 was assessed in a list of solvents selected based on class diversity including solvent/water mixtures (Table 5). Compound 1 (5.0±0.2 mg) was weighted in vials and known aliquots of solvent were progressively added at 20° C. until a clear solution was visually observed; magnetic stirring was applied. The final solutions were stirred at room temperature overnight to evaluate any re-crystallization phenomena."}, "[2]": {"assay": "Intravenous and oral cross-over pharmacokinetic study", "assay_type": "in vivo, male Sprague Dawley rats", "conditions": "male rats, IV 1 mg/kg", "protocol": "This study assessed the PK of Compound 1 AH Form A in male Sprague Dawley rats (3/group) following single IV (intravenous) administration at 1 mg/kg as a solution in 2.5% N-Methyl-2-pyrrolidone (NMP)+1% Solutol HS15 in water or a PO (oral) administration of 3 formulations at 5 and 50 mg/kg, administered to the same animals in a cross over with 7 days recovery.\nSerial plasma samples were collected at intervals to 24 h post dose and the level of Compound 1 determined in each plasma sample by LC-MS/MS."}, "[3]": {"biological_target": "T1, pregnane X receptor (PXR) (Homo sapiens, UniProt O75469)", "T1 sequence (O75469 1-434)": "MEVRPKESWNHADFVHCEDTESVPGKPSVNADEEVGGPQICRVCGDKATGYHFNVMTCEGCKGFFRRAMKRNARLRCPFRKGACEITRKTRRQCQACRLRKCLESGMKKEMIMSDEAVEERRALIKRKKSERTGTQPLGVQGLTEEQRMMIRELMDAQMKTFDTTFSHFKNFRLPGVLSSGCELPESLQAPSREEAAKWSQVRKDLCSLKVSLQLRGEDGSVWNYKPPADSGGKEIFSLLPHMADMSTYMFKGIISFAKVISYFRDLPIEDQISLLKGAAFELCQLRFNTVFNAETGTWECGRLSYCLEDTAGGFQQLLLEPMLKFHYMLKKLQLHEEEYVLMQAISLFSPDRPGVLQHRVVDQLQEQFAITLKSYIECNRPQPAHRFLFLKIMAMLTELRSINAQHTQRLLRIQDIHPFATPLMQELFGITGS", "assay": "PXR receptor activation, human", "assay_type": "in vitro ADME", "text": "The objective of this study was to determine the human and rat pregnane X receptor (PXR) and human and rat aryl hydrocarbon receptor (AhR) receptor activation potential of Compound 1 Form A. The activation of PXR is a marker for induction of CYP3A4/5 and […] and the activation of AhR is a marker for induction of CYP1A."}, "dKI mice": {"system": "dKI mice", "assay": "SV2A PET imaging of synaptic density in APPNLGF/MAPT (dKI) mouse model", "assay_type": "in vivo", "conditions": "12 months of age, one-month treatment, 3.75 mg/kg q12 oral", "protocol": "The objective of this study was to assess synaptic density of control and Amyloid Precursor Protein carrying NL-G-F mutations/Microtubule-associated protein tau (APP^NLGF/MAPT) (dKI—double knock-in) mice before and after treatment with Compound 1. Vehicle (95% PEG-400/5% Solutol) or Compound 1 at 7.5 mg/kg/day (3.75 mg/kg q12) was given to control and dKI mice for at least 28 days by oral administration.\nTo further maximize translational relevance, in other studies mice were aged to the point that synapse loss was detectable using SV2A PET. At 12 months of age, synapse density, as measured by hippocampal/brainstem [^18F]SDM-8 SUVR-1, was reduced in dKI mice relative to wild-type."}, "C57/BI6J mice": {"system": "C57/BI6J mice", "assay": "Prevention of positive allosteric modulator (PAM) induced seizures", "assay_type": "in vivo", "conditions": "oral gavage 2 hours before PAM 20 mg/kg i.p.", "protocol": "The objective of this study was to assess the enantiomeric selectivity of Compound 1 for the mGluR5 receptor as a function of seizure prevention. It had been previously reported that PAMs of mGluR5 are capable of inducing seizures in C57/BI6J mice.\nCompound 1 (0.12, 0.24, 0.47, 0.94, 1.88, 3.75 or 7.5 mg/kg), enantiomer of Compound 1 (7.5, 15 or 30 mg/kg) or vehicle were administered by oral gavage to C57/BI6J mice of 3-11 months of age. After 2 hours, a PAM compound was administered at 20 mg/kg via intraperitoneal injection. Animals were then placed in a 10 inch diameter acrylic cage for observation and video recording for 2 h post dose and seizures were scored using the Racine seizure scoring criteria and normalized to a scale of 0-1."}}, "note": "Entries after “also recorded” stand apart in the source; their conditions may differ. Read-outs that look alike come from different tables or passages of the source.", "data": [{"smiles": "O=C1N[C@H](c2cncc(C#Cc3ccccc3)c2)[C@@H](c2ccccc2Cl)O1", "note": "[Compound 1, (4R,5R)-5-(2-chlorophenyl)-4-(5-(phenylethynyl)pyridin-3-yl)oxazolidin-2-one]", "values": [{"measurement": "solubility", "setting": "[1]; aqueous with cosolvent or surfactant or cyclodextrin, 2-propanol/water 50:50, 20° C.", "value": "~5", "unit": "mg/mL"}, {"measurement": "solubility", "setting": "[1]; aqueous with cosolvent or surfactant or cyclodextrin, acetone/water 50:50, 20° C.", "value": "~5", "unit": "mg/mL"}, {"measurement": "solubility", "setting": "[1]; organic solvent or mixture, 2-butanol, 20° C.", "value": "50 to 100", "unit": "mg/mL"}, {"measurement": "solubility", "setting": "[1]; organic solvent or mixture, 2-methyltetrahydrofuran (MeTHF), 20° C.", "value": "> 100", "unit": "mg/mL"}, {"measurement": "solubility", "setting": "[1]; organic solvent or mixture, 2-propanol/water 80:20, 20° C.", "value": "50 to 100", "unit": "mg/mL"}, {"measurement": "solubility", "setting": "[1]; organic solvent or mixture, 2-propanol/water 90:10, 20° C.", "value": "30 to 50", "unit": "mg/mL"}, {"measurement": "solubility", "setting": "[1]; organic solvent or mixture, acetone, 20° C.", "value": "> 100", "unit": "mg/mL"}, {"measurement": "solubility", "setting": "[1]; organic solvent or mixture, acetone/water 90:10, 20° C.", "value": "> 100", "unit": "mg/mL"}, {"measurement": "solubility", "setting": "[1]; organic solvent or mixture, acetonitrile, 20° C.", "value": "50 to 100", "unit": "mg/mL"}, {"measurement": "solubility", "setting": "[1]; organic solvent or mixture, benzonitrile, 20° C.", "value": "> 100", "unit": "mg/mL"}, {"measurement": "solubility", "setting": "[1]; organic solvent or mixture, dichloromethane, 20° C.", "value": "> 100", "unit": "mg/mL"}, {"measurement": "solubility", "setting": "[1]; organic solvent or mixture, ethanol, 20° C.", "value": "> 100", "unit": "mg/mL"}, {"measurement": "solubility", "setting": "[1]; organic solvent or mixture, ethyl acetate, 20° C.", "value": "> 100", "unit": "mg/mL"}, {"measurement": "solubility", "setting": "[1]; organic solvent or mixture, heptane, 20° C.", "value": "< 2", "unit": "mg/mL"}, {"measurement": "solubility", "setting": "[1]; organic solvent or mixture, i-propyl acetate, 20° C.", "value": "50 to 100", "unit": "mg/mL"}, {"measurement": "solubility", "setting": "[1]; organic solvent or mixture, isopropyl alcohol (IPA), 20° C.", "value": "25 to 30", "unit": "mg/mL"}, {"measurement": "solubility", "setting": "[1]; organic solvent or mixture, methyl ethyl ketone (MEK), 20° C.", "value": "> 100", "unit": "mg/mL"}, {"measurement": "solubility", "setting": "[1]; organic solvent or mixture, methyl isobutyl ketone (MIK), 20° C.", "value": "> 100", "unit": "mg/mL"}, {"measurement": "solubility", "setting": "[1]; organic solvent or mixture, methyl tert-butyl ether (MTBE), 20° C.", "value": "17 to 25", "unit": "mg/mL"}, {"measurement": "solubility", "setting": "[1]; organic solvent or mixture, t-Butyl acetate, 20° C.", "value": "25 to 30", "unit": "mg/mL"}, {"measurement": "solubility", "setting": "[1]; organic solvent or mixture, tetrahydrofuran (THF), 20° C.", "value": "> 100", "unit": "mg/mL"}, {"measurement": "solubility", "setting": "[1]; organic solvent or mixture, toluene, 20° C.", "value": "25 to 30", "unit": "mg/mL"}, {"measurement": "solubility", "setting": "[1]; water, 20° C.", "value": "< 2", "unit": "mg/mL"}, {"measurement": "clearance", "setting": "[2]; Sprague Dawley, rat, plasma", "value": 5.98, "unit": "mL/min/kg"}, {"measurement": "half-life", "setting": "[2]; Sprague Dawley, rat, plasma", "value": 269, "unit": "min"}, {"measurement": "Cmax", "setting": "[2]; Sprague Dawley, rat, plasma, solution in 2.5% NMP + 1% Solutol HS15 in water", "value": 595, "unit": "ng/mL"}, {"measurement": "Vd", "setting": "[2]; Sprague Dawley, rat, plasma, read-out: Vdss", "value": 2.23, "unit": "L/kg"}, {"measurement": "AUCinf (in AUClast column, footnote 1)", "setting": "[2]", "value": "2910^1 ng · h/mL"}, {"measurement": "PXR activation, % of the positive control", "setting": "[3]", "value": 29.6, "unit": "%"}, {"measurement": "calculated F2 value, PXR", "setting": "[3]", "value": 5.05, "unit": "UM"}, {"measurement": "mean maximum fold activation of PXR", "setting": "[3]", "value": 4.58, "unit": "fold"}, {"measurement": "synaptic density, SV2A PET (hippocampal/brainstem [18F]SDM-8 SUVR-1)", "setting": "dKI mice", "value": "fully recovered; also recorded: highly significant increase"}, {"measurement": "seizure prevention activity", "setting": "C57/BI6J mice; Compound 1 0.12-7.5 mg/kg, enantiomer 7.5-30 mg/kg", "value": "dose dependent prevention"}, {"measurement": "IC50 of inhibition of PAM-induced seizures", "setting": "C57/BI6J mice; Racine score", "value": 1.09, "unit": "mg/kg"}]}]}
